According to ChEMBL document CHEMBL1201862, “PubChem BioAssay data set” (2004):
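Tested at 5 concentrations; 48 h exposure; 96-well plates; endpoints linearly interpolated, else capped at highest concentration. Here, GI50 denotes the concentration required for 50% inhibition of growth.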 Activity calls are given as the source filed them. No stated cut-off is given here; in the data, active = GI50 up to about 1.1 µM and inactive = higher.

Assays:
Assay in all cases: inhibition of tumour cell growth, NCI panel, 48 h
ACHN = tested on: ACHN
Malme-3M = tested on: Malme-3M
SN12C = tested on: SN12C
A549 = tested on: A549
OVCAR-3 = tested on: OVCAR-3
SF-539 = tested on: SF-539
OVCAR-8 = tested on: OVCAR-8
SF-295 = tested on: SF-295
KM12 = tested on: KM12
SF-268 = tested on: SF-268
XF498 = tested on: XF498
OVCAR-4 = tested on: OVCAR-4
IGROV-1 = tested on: IGROV-1
UO-31 = tested on: UO-31
SW-620 = tested on: SW-620
DMS-114 = tested on: DMS-114
SK-MEL-2 = tested on: SK-MEL-2
TK-10 = tested on: TK-10
KM-20L2 = tested on: KM-20L2
NCI-H226 = tested on: NCI-H226
SNB-78 = tested on: SNB-78
HCT-15 = tested on: HCT-15
OVCAR-5 = tested on: OVCAR-5
HCT-116 = tested on: HCT-116
RXF 393 = tested on: RXF 393
DLD-1 = tested on: DLD-1
UACC-257 = tested on: UACC-257
RPMI-8226 = tested on: RPMI-8226
CCRF-CEM = tested on: CCRF-CEM
EKVX = tested on: EKVX
MOLT-4 = tested on: MOLT-4
M19-MEL = tested on: M19-MEL
NCI-H460 = tested on: NCI-H460
M14 = tested on: M14
NCI-H23 = tested on: NCI-H23
U-251 = tested on: U-251
CAKI-1 = tested on: CAKI-1
786-0 = tested on: 786-0
HOP-18 = tested on: HOP-18
HT-29 = tested on: HT-29
SNB-19 = tested on: SNB-19
LXFL 529 = tested on: LXFL 529
RXF 631 = tested on: RXF 631
A498 = tested on: A498
HOP-92 = tested on: HOP-92
COLO 205 = tested on: COLO 205
K562 = tested on: K562
SK-MEL-28 = tested on: SK-MEL-28
HL-60 = tested on: HL-60
HCC 2998 = tested on: HCC 2998
SK-OV-3 = tested on: SK-OV-3
NCI-H522 = tested on: NCI-H522
SK-MEL-5 = tested on: SK-MEL-5
HOP-62 = tested on: HOP-62
UACC-62 = tested on: UACC-62
LOX IMVI = tested on: LOX IMVI
DMS-273 = tested on: DMS-273
SR = tested on: SR
SNB-75 = tested on: SNB-75

## CC(/C=C1\CCC(CN(C)C)C1=O)c1cccc(Br)c1 (stereo not drawn)
ACHN
  GI50: 13.4 µM (inactive)
Malme-3M
  GI50: 17.8 µM (inactive)
SN12C
  GI50: 22 µM (inactive)
A549
  GI50: 31.3 µM (inactive)
OVCAR-3
  GI50: 17 µM (inactive)
SF-539
  GI50: 18 µM (inactive)
OVCAR-8
  GI50: 18.2 µM (inactive)
SF-295
  GI50: 22.2 µM (inactive)
KM12
  GI50: 10.1 µM (inactive)
SF-268
  GI50: 21.7 µM (inactive)
XF498
  GI50: 20.6 µM (inactive)
OVCAR-4
  GI50: 17 µM (inactive)
IGROV-1
  GI50: 13.8 µM (inactive)
UO-31
  GI50: 19.1 µM (inactive)
SW-620
  GI50: 8.18 µM (inactive)
DMS-114
  GI50: 19.7 µM (inactive)
SK-MEL-2
  GI50: 16.7 µM (inactive)
TK-10
  GI50: 15.7 µM (inactive)
KM-20L2
  GI50: 21.4 µM (inactive)
NCI-H226
  GI50: 22.3 µM (inactive)
SNB-78
  GI50: 16.4 µM (inactive)
HCT-15
  GI50: 14.9 µM
OVCAR-5
  GI50: 22.8 µM (inactive)
HCT-116
  GI50: 8.59 µM (inactive)
RXF 393
  GI50: 13.3 µM (inactive)
DLD-1
  GI50: 9.57 µM (inactive)
UACC-257
  GI50: 17.3 µM (inactive)
RPMI-8226
  GI50: 2 µM (inactive)
CCRF-CEM
  GI50: 2.52 µM (inactive)
EKVX
  GI50: 20.9 µM (inactive)
MOLT-4
  GI50: 3.85 µM (inactive)
M19-MEL
  GI50: 20.7 µM (inactive)
NCI-H460
  GI50: 29.6 µM (inactive)
M14
  GI50: 14.9 µM (inactive)
NCI-H23
  GI50: 19.5 µM (inactive)
U-251
  GI50: 18.2 µM (inactive)
CAKI-1
  GI50: 8.15 µM (inactive)
786-0
  GI50: 3.41 µM (inactive)
HOP-18
  GI50: 18.7 µM (inactive)
HT-29
  GI50: 15.1 µM (inactive)
SNB-19
  GI50: 26 µM (inactive)
LXFL 529
  GI50: 5.62 µM (inactive)
RXF 631
  GI50: 7.91 µM (inactive)
A498
  GI50: 26.5 µM (inactive)
HOP-92
  GI50: 18.2 µM (inactive)
COLO 205
  GI50: 17.9 µM (inactive)
K562
  GI50: 2.77 µM (inactive)
SK-MEL-28
  GI50: 17 µM (inactive)
HL-60
  GI50: 3.06 µM (inactive)
HCC 2998
  GI50: 20.4 µM (inactive)
SK-OV-3
  GI50: 65.2 µM (inactive)
NCI-H522
  GI50: 8.05 µM (inactive)
SK-MEL-5
  GI50: 13.8 µM (inactive)
HOP-62
  GI50: 22.7 µM (inactive)
UACC-62
  GI50: 17.3 µM (inactive)

## COC(=O)C12Oc3ccc(-c4ccc5c(c4O)C(=O)C4=CCC(C)C(O)C4(C(=O)OC)O5)c(O)c3C(=O)C1=CCC(C)C2O (stereo not drawn)
ACHN
  GI50: 1.34 µM (inactive)
Malme-3M
  GI50: 1.53 µM (inactive)
SN12C
  GI50: 1.98 µM (inactive)
A549
  GI50: 1.94 µM (inactive)
OVCAR-3
  GI50: 1.36 µM (inactive)
SF-539
  GI50: 2.89 µM (inactive)
OVCAR-8
  GI50: 0.964 µM (active)
SF-295
  GI50: 2.02 µM (inactive)
KM12
  GI50: 1.47 µM (inactive)
SF-268
  GI50: 1.1 µM (active)
OVCAR-4
  GI50: 2.21 µM (inactive)
IGROV-1
  GI50: 1.62 µM (inactive)
UO-31
  GI50: 1.46 µM (inactive)
SW-620
  GI50: 0.836 µM (active)
DMS-114
  GI50: 1.3 µM (inactive)
SK-MEL-2
  GI50: 1.41 µM (inactive)
TK-10
  GI50: 2.44 µM (inactive)
KM-20L2
  GI50: 1.44 µM (inactive)
NCI-H226
  GI50: 2.09 µM (inactive)
SNB-78
  GI50: 1.95 µM (inactive)
HCT-15
  GI50: 1.08 µM
OVCAR-5
  GI50: 2.13 µM (inactive)
HCT-116
  GI50: 0.925 µM (active)
RXF 393
  GI50: 1.63 µM (inactive)
DLD-1
  GI50: 0.798 µM (active)
UACC-257
  GI50: 1.82 µM (inactive)
RPMI-8226
  GI50: 0.897 µM (active)
CCRF-CEM
  GI50: 0.733 µM (active)
EKVX
  GI50: 1.88 µM (inactive)
MOLT-4
  GI50: 5.66 µM (inactive)
LOX IMVI
  GI50: 1.49 µM (inactive)
M19-MEL
  GI50: 1.48 µM (inactive)
NCI-H460
  GI50: 1.97 µM (inactive)
M14
  GI50: 1.63 µM (inactive)
NCI-H23
  GI50: 1.37 µM (inactive)
U-251
  GI50: 1.59 µM (inactive)
CAKI-1
  GI50: 2.07 µM (inactive)
786-0
  GI50: 1.53 µM (inactive)
DMS-273
  GI50: 1.62 µM (inactive)
HOP-18
  GI50: 2.26 µM (inactive)
HT-29
  GI50: 1.51 µM (inactive)
SNB-19
  GI50: 2.34 µM (inactive)
LXFL 529
  GI50: 1.19 µM (inactive)
RXF 631
  GI50: 2.13 µM (inactive)
A498
  GI50: 2.19 µM (inactive)
HOP-92
  GI50: 1.26 µM (inactive)
COLO 205
  GI50: 1.32 µM (inactive)
K562
  GI50: 3.77 µM (inactive)
SK-MEL-28
  GI50: 1.67 µM (inactive)
HL-60
  GI50: 0.935 µM (active)
HCC 2998
  GI50: 1.31 µM (inactive)
SK-OV-3
  GI50: 1.96 µM (inactive)
SR
  GI50: 843 nM (active)
NCI-H522
  GI50: 1.01 µM (active)
SK-MEL-5
  GI50: 1.63 µM (inactive)
SNB-75
  GI50: 6.22 µM (inactive)
HOP-62
  GI50: 2.18 µM (inactive)
UACC-62
  GI50: 1.29 µM (inactive)
